# In US20160289640A1, “MTOR/STAT3 SIGNAL INHIBITOR-TREATED MESENCHYMAL STEM CELL HAVING IMMUNOMODULATORY ACTIVITY, AND CELL THERAPY COMPOSITION COMPRISING SAME, FOR PREVENTING OR TREATING IMMUNE DISORDERS” (THE CATHOLIC UNIVERSITY OF KOREA INDUSTRY-ACADEMIC …, priority 2013, published 2016):
# “Also recorded” adds a separate entry of the source.
# Tests used:
# [1] = system: adipose tissue-derived mesenchymal stem cells; experiment: Cell migration kit analysis (upper/lower chamber, polycarbonate membrane); format: cell-based, human
# Method: For the confirmation of cell migration of the mesenchymal stem cells treated with rapamycin (10 ng/mL), the cells were analyzed using a cell migration kit (Chemicon, Temecula, Calif.). That is, a group with CD4+T cells alone, a group treated with CD4+T cells and rapamycin (10 ng/mL), and a group treated with SDF-1 cells and CD4+T cells were added into the lower chamber, respectively, and the mesenchymal stem cells were added into the upper chamber. Then, for the migration of the adipose tissue-derived mesenchymal stem cells added into the upper chamber into the lower chamber, the cells passed through a polycarbonate membrane were stained and their number was observed by counting.
# [2] = system: mTOR signaling pathway in human adipose tissue-derived mesenchymal stem cells; experiment: Western blot analysis of mTOR signaling pathway and autophagy proteins; format: cell-based
# Method: The present inventors, in furtherance with the result of <6-1>, performed western blot analysis to examine whether mTOR signaling pathway can be controlled by rapamycin, in the rapamycin-treated mesenchymal stem cells. For this purpose, human adipose tissue-derived mesenchymal stem cells were treated with 10 ng/mL rapamycin, and 1 hour later, the cells were lysed and proteins were extracted therefrom. Then, the extracted proteins were subjected to SDS-PAGE electrophoresis, electrically transferred to a nitrocellulose membrane, blocked with 5% skim milk for 1 hour, reacted by attaching primary antibodies to Beclin1, ATG5, ATG7, LC3I, LC3II, Phospho-mTOR, mTOR, Rictor, and Ractor, and then reacted by attaching secondary antibodies thereto, and photosensitized into Kodak X-ray using the Enhanced Chemiluminescence (ECL), and the expression levels of the proteins of these genes were analyzed (FIG. 6c).
# [3] = system: adipose tissue-derived mesenchymal stem cell; experiment: Real-time PCR of cell migration markers; format: cell-based, human; settings: 50 nM rapamycin, vs group not treated
# Method: In order to confirm whether adipose tissue-derived mesenchymal stem cell treated with 50 nM rapamycin can migrate into a lesion area due to their cell migration capability, the present inventors analyzed the expression levels of CCR1, CCR2, CCR3, CCR4, CCR7, CCR9, and CXCR4, which are factors associated with the migration of mesenchymal stem cells, via real-time PCR.
# [4] = system: mesenchymal stem cells derived from human adipose tissue; experiment: Fluorescence microscope analysis of IL-10 and IDO expression in rapamycin-treated mesenchymal stem cells; format: cell-based; settings: FIG. 1b
# [5] = system: adipose tissue-derived mesenchymal stem cells; experiment: Real time PCR of inflammatory factors and tumor factors in rapamycin-treated mesenchymal stem cells; format: cell-based; settings: 100 nM rapamycin, vs group not treated
# Method: (§1) The mesenchymal stem cells isolated and cultured in <Example 1> were treated with rapamycin, respectively, and the changes in the expression of High-mobility group protein B1 (HMGB-1), IL-6, and IL-1β, which are genes associated with inflammatory factors and tumor factors. First, in a condition of 60 mm dish, for the adipose tissue-derived mesenchymal stem cells, the mesenchymal stem cells in the amount of 5 ? 10^5 cells which were treated with 100 nM rapamycin and cultured at 37° C. were used. In particular, the mesenchymal stem cells not treated with rapamycin were used as a control, and the expression level of the genes having immunomodulatory activity in rapamycin-treated mesenchymal stem cells was analyzed using a real time PCR method.
# mesenchymal stem cells [6] = experiment: Flow cytometry of cell phenotype CD markers in rapamycin-treated mesenchymal stem cells; format: cell-based
# Method: The mesenchymal stem cells isolated and cultured in <Example 1> were treated with rapamycin, respectively, and the phenotypes of the mesenchymal stem cells were analyzed. In particular, the mesenchymal stem cells not treated with rapamycin were used as a control, and the expression level of cell markers in the rapamycin-treated mesenchymal stem cells were analyzed via flow cytometry.
# mesenchymal stem cells [7] = experiment: Real time PCR of genes associated with immunomodulatory activity in rapamycin-treated mesenchymal stem cells; format: cell-based, human
# Method: as §1, with “IDO, IL-10,” for “High-mobility group protein B1 (HMGB-1), IL-6,”, “TGF-β,” for “IL-1β,”, “immunomodulatory activity.” for “inflammatory factors and tumor factors.”
# [8] = system: mesenchymal stem cells derived from human adipose tissues; experiment: Formation of autophagic vacuoles observed under electron microscope; format: cell-based; settings: 50 μM rapamycin
# Method: Meanwhile, autophagy has the effects capable of controlling the beneficial or harmful effects of immunity and inflammation, and preventing autoimmunity and inflammatory diseases, and thus the rapamycin-treated mesenchymal stem cells of the present invention, due to their autophagy, can be more effectively used for the immunity and treatment of inflammatory diseases. As such, the present inventors treated the mesenchymal stem cells with 50 μM rapamycin and the degree of formation of autophagic vacuoles was observed under electron microscope.
# [9] = system: adipose tissue-derived mesenchymal stem cells; experiment: Real-time PCR of autophagy factor markers; format: cell-based, human; settings: 10 ng/mL rapamycin, 12 hours, vs group not treated
# Method: The adipose tissue-derived mesenchymal stem cells isolated and cultured in Example 1 were treated with 10 ng/mL rapamycin, and 12 hours later, the cells were collected and the total RNA was obtained therefrom. Then, cDNA Synthesis Kit (Roche, Transcriptor First Strand cDNA Synthesis Kit) was prepared based on the RNA. Then, the expression levels of ATG5, LC3A, and LC3B genes, which are autophagy factor markers, were analyzed via real-time PCR using the thus-synthesized cDNA.
# [10] = 10 ng/mL rapamycin, 1 hour, western blot
# [11] = 100 nM rapamycin, 5x10^5 cells, 37° C., real time PCR, vs group not treated
structure (smiles),measurement,setting,value
CO/C1=C\C(C)=C\[C@@H](C)[C@@H](O)[C@@H](C)C/C(C)=C/C=C/[C@H](OC)[C@@H]([C@@H](C)[C@@H](O)[C@H](C)[C@@]2(O)C[C@@H](O)[C@H](C)[C@@H](C(C)C)O2)OC1=O [bafilomycin],cell migration capability of the rapamycin-treated mesenchymal stem cells,[1]; after treatment with bafilomycin,reduced
"CO[C@H]1C[C@@H]2CC[C@@H](C)[C@@](O)(O2)C(=O)C(=O)N2CCCC[C@H]2C(=O)O[C@H]([C@H](C)C[C@@H]2CC[C@@H](O)[C@H](OC)C2)CC(=O)[C@H](C)/C=C(\C)[C@@H](O)[C@@H](OC)C(=O)[C@H](C)C[C@H](C)/C=C/C=C/C=C/1C [rapamycin, (3S,6R,7E,9R,10R,12R,14S,15E,17E,19E,21S,23S,26R,27R,34aS)-9,10,12,13,14,21,22,23,24,25,26,27,32,33,34,34a-hexadecahydro-9,27-dihydroxy-3-[(1R)-2-[(1S,3R,4R)-4-hydroxy-3-methoxycyclohexyl]-1-methylethyl]-10,21-dimethoxy-6,8,12,14,20,26-hexamethyl-23,27-epoxy-3H-pyrido [2,1-c][1,4]-oxaazacyclohentriacontine-1,5,11,28,29 (4H,6H,31H)-pentone]",expression level of ATG5 protein,[2]; [10],increase
same,expression level of ATG7 protein,[2]; [10],increase
same,expression level of Beclin1 protein,[2]; [10],increase
same,expression level of LC3I protein,[2]; [10],increase
same,expression level of LC3II protein,[2]; [10],increase
same,mTOR activation (phosphorylation),[2]; [10],inhibited; also recorded: reduced
same,expression of Ractor,[2]; rapamycin treatment,decreased
same,expression of Rictor,[2]; rapamycin treatment,decreased
same,increase in the expression of CCR1,[3],~115 fold
same,increase in the expression of CCR2,[3],~25 fold
same,increase in the expression of CCR3,[3],~70 fold
same,increase in the expression of CCR4,[3],~32 fold
same,increase in the expression of CCR7,[3],~200 fold
same,increase in the expression of CCR9,[3],~150 fold
same,increase in the expression of CXCR4,[3],~60 fold
same,expression level of IL-10 cytokine,[4],significantly increased
same,expression of HMGB-1,[5],significant decrease
same,expression of IL-1β,[5],significant decrease
same,expression of IL-6,[5],significant decrease
same,expression of CD45 (negative marker),mesenchymal stem cells [6],negative
same,expression of HLA-DR (negative marker),mesenchymal stem cells [6],negative
same,migration of mesenchymal stem cells,"[1]; CD4+T cells and rapamycin (10 ng/mL), vs mesenchymal stem cells not treated with anything",greater migration
same,increase in the expression of IDO,mesenchymal stem cells [7]; [11],~5 fold
same,increase in the expression of IL-10,mesenchymal stem cells [7]; [11],~5 fold
same,increase in the expression of TGF-β,mesenchymal stem cells [7]; [11],~5 fold
same,increase in TGF-β expression,mesenchymal stem cells [7]; rapamycin-treated mesenchymal stem cells derived from adipose tissue vs not treated with rapamycin,~30 fold
same,number of autophagic vacuoles,[8],increase
same,expression level of ATG5 gene,[9],significant increase
same,expression level of LC3A gene,[9],significant increase
same,expression level of LC3B gene,[9],significant increase
